Key:
Test in all cases: Competitive isoTOP-ABPP in situ (fragment-treated cells)
Format in all cases: cell-based
[1] = target: cysteines in MDA-MB-231 and Ramos cells (Homo sapiens, UniProt Q9NYL2)
[2] = target: T1, cysteines in MDA-MB-231 and Ramos cells (Homo sapiens, UniProt P42765); conditions: 200 μM, insitu
T1 sequence (P42765 1-397): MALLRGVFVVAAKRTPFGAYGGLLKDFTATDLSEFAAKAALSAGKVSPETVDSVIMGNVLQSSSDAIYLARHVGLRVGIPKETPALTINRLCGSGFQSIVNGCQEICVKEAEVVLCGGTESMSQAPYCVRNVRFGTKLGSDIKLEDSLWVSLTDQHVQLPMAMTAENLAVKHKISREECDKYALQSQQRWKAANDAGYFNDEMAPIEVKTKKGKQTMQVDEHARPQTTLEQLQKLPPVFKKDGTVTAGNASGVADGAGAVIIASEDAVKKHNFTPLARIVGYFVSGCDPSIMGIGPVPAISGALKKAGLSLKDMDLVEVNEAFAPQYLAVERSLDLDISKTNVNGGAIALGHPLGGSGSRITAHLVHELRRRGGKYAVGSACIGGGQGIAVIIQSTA

[3] = target: T2, cysteines in MDA-MB-231 and Ramos cells (Homo sapiens, UniProt P42224)
T2 sequence (P42224 1-750): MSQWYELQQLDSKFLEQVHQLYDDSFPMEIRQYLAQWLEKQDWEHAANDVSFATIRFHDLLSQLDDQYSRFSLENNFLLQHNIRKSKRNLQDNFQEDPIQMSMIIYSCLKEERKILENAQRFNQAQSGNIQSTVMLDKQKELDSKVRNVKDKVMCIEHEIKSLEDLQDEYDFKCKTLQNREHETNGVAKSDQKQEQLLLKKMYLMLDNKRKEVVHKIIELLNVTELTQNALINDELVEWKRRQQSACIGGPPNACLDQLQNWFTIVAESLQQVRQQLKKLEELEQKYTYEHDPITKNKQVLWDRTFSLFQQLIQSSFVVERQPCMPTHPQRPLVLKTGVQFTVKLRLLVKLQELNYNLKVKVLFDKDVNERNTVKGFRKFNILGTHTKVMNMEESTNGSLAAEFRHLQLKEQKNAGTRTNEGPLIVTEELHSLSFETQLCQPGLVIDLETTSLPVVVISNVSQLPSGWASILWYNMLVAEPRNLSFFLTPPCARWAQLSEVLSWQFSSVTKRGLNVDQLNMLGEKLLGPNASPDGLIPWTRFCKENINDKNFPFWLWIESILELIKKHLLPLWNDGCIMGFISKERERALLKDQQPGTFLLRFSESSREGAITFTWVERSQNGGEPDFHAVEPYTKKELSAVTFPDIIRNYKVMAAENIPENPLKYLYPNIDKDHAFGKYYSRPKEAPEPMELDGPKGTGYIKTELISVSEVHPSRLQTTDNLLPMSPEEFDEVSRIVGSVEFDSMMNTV

[4] = target: cysteines in MDA-MB-231 and Ramos cells (Homo sapiens, UniProt O00299)
[5] = target: T3, cysteines in MDA-MB-231 and Ramos cells (Homo sapiens, UniProt O15294)
T3 sequence (O15294 1-1046): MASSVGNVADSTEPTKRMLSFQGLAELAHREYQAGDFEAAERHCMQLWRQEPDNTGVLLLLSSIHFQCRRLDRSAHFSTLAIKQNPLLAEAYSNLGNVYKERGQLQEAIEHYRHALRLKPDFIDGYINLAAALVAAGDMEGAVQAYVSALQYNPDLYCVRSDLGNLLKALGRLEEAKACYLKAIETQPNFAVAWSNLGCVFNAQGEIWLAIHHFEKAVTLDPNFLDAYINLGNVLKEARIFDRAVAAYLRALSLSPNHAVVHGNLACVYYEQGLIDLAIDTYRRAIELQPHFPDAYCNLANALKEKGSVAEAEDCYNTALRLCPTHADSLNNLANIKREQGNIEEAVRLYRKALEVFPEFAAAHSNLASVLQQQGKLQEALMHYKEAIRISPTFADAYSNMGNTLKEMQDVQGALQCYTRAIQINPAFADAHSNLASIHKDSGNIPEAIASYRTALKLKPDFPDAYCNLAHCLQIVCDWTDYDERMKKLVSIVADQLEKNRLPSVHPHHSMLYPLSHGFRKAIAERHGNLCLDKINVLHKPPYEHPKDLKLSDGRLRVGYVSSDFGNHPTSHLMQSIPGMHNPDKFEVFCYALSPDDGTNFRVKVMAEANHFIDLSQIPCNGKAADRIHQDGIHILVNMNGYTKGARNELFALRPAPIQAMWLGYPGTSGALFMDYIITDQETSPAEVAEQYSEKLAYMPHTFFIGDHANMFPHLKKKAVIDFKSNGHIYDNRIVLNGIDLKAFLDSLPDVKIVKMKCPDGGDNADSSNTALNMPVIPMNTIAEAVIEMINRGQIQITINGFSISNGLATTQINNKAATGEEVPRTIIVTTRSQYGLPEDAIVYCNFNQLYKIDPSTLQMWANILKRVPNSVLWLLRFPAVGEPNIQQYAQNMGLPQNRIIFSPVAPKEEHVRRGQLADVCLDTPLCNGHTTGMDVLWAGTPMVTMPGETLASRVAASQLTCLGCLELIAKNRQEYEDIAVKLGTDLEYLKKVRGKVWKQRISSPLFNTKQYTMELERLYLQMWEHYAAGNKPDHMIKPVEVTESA

[6] = target: cysteines in MDA-MB-231 and Ramos cells (Homo sapiens, UniProt Q13526)
[7] = target: T4, cysteines in MDA-MB-231 and Ramos cells (Homo sapiens, UniProt Q86SX6)
T4 sequence (Q86SX6 32-157): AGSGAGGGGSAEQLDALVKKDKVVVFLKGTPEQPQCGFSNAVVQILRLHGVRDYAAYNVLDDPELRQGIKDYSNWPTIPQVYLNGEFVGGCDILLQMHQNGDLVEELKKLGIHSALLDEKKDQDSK

cysteines in MDA-MB-231 and Ramos cells (Homo sapiens, UniProt Q9NYL2), sequence (Q9NYL2 whole entry): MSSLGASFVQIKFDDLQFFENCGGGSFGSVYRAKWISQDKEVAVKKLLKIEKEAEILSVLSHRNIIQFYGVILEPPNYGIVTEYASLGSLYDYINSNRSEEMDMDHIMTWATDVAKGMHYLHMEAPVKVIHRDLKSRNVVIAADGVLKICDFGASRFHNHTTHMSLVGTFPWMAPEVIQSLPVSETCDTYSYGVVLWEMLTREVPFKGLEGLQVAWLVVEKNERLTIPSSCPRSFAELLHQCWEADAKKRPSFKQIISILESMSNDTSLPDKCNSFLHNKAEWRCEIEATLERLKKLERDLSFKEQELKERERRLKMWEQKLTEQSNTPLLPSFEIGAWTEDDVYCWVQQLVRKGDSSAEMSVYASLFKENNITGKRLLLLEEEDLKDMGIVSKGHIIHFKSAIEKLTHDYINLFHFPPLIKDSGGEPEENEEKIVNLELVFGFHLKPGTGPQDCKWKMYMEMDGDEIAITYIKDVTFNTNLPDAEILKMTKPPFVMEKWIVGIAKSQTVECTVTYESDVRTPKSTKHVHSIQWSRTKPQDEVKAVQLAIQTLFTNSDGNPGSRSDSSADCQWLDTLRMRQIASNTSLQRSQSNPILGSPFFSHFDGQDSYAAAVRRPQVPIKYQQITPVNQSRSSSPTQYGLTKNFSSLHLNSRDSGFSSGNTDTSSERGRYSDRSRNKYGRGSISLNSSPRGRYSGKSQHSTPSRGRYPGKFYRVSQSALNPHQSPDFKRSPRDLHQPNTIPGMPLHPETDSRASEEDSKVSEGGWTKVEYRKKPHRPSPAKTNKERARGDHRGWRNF
cysteines in MDA-MB-231 and Ramos cells (Homo sapiens, UniProt Q13526), sequence (Q13526 whole entry): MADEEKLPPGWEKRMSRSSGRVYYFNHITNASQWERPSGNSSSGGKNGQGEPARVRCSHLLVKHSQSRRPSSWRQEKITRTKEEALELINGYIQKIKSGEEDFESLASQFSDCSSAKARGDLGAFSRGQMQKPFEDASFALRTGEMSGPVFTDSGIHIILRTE

| Structure (SMILES) | isoTOP-ABPP ratio P42765_C92 [2]; 231 | isoTOP-ABPP ratio O00299_C24 ([4]; 200 μM, insitu, 231) | isoTOP-ABPP ratio Q13526_C113 ([6]; 200 μM, insitu, 231) | isoTOP-ABPP ratio Q86SX6_C67 ([7]; 200 μM, insitu, 231) | isoTOP-ABPP ratio P42224_C492 ([3]; 200 μM, insitu, 231) | isoTOP-ABPP ratio O15294_C758 ([5]; 200 μM, insitu, 231) | isoTOP-ABPP ratio P42765_C92 ([2]; ramos) | isoTOP-ABPP ratio Q13526_C113 ([6]; 200 μM, insitu, ramos) | isoTOP-ABPP ratio Q86SX6_C67 ([7]; 200 μM, insitu, ramos) | further results |
| --- | --- | --- | --- | --- | --- | --- | --- | --- | --- | --- |
| COc1ccc2c(c1)CCCN2C(=O)CCl [compound 2] | – | – | – | – | – | – | – | – | – | isoTOP-ABPP reactivity Q9NYL2_C22 MUTK Mitogen-activated protein kinase MLTK ([1]; 200 μM, insitu, 231): 5.5; isoTOP-ABPP reactivity P42765_C92 ACAA2 [2]; 231: 20.0; isoTOP-ABPP reactivity P42224_C492 STAT1 ([3]; 200 μM, insitu, 231): 16.9; isoTOP-ABPP reactivity O00299_C24 CLIC1 ([4]; 200 μM, insitu, 231): 9.5; isoTOP-ABPP reactivity 015294_C758 OGT ([5]; 200 μM, insitu, 231): 2.6; isoTOP-ABPP reactivity Q13526_C113 PIN1 ([6]; 200 μM, insitu, 231): 20.0; isoTOP-ABPP reactivity Q865X6_C67 GLRX5 ([7]; 200 μM, insitu, 231): 1.1 |
| C=CC(=O)Nc1cc(F)c(N2CCN(C(=O)OC(C)(C)C)CC2)c(F)c1 [compound 38] | 0.9 | 1.0 | 1.0 | 1.0 | – | – | – | – | – | – |
| O=C(CCl)NC(=O)NC12CC3CC(CC(C3)C1)C2 [compound 12] | 20.0 | 20.0 | 0.6 | 1.6 | 1.0 | 20.0 | – | – | – | isoTOP-ABPP ratio Q9NYL2_C22 ([1]; 200 μM, insitu, 231): 0.7 |
| C=CC(=O)N(Cc1cccnc1)c1cc(C(F)(F)F)cc(C(F)(F)F)c1 [compound 31] | 0.8 | 0.6 | 0.6 | – | 0.8 | – | 1.2 | 1.1 | 0.7 | isoTOP-ABPP ratio P42224_C492 ([3]; 200 μM, insitu, ramos): 1.9; isoTOP-ABPP ratio O15294_C620 ([5]; 200 μM, insitu, 231): 1.1 |
| Cn1cc(S(=O)(=O)N2CCOCC2)cc1C(=O)NC(=O)CCl [compound 11] | – | – | – | – | – | – | – | – | – | isoTOP-ABPP ratio Q9NYL2_C22 ([1]; 100 μM in situ 231): 0.7; isoTOP-ABPP ratio P42224_C492 ([3]; 100 μM in situ 231): 0.7; isoTOP-ABPP ratio O00299_C24 ([4]; 100 μM in situ 231): 2.5; isoTOP-ABPP ratio O15294_C758 ([5]; 100 μM in situ 231): 1.0; isoTOP-ABPP ratio Q13526_C113 ([6]; 100 μM in situ 231): 0.7; isoTOP-ABPP ratio Q86SX6_C67 ([7]; 100 μM in situ 231): 1.4 |
| O=C(CCl)NCCc1c[nH]c2ccccc12 [compound 13] | – | – | 0.9 | 10.3 | 1.0 | 1.0 | 2.2 | 1.0 | 12.4 | isoTOP-ABPP ratio Q9NYL2_C22 ([1]; 200 μM, insitu, 231): 1.3; isoTOP-ABPP ratio O00299_C24 ([4]; 200 μM, insitu, ramos): 1.8 |
| O=C(CCl)N1CCN(CC(=O)N2CCOCC2)CC1 [compound 29] | – | – | – | – | – | – | 0.9 | 1.0 | 1.2 | isoTOP-ABPP ratio Q9NYL2_C22 ([1]; 200 μM, insitu, ramos): 1.2; isoTOP-ABPP ratio P42224_C492 ([3]; 200 μM, insitu, ramos): 3.8; isoTOP-ABPP ratio O00299_C24 ([4]; 200 μM, insitu, ramos): 1.1; isoTOP-ABPP ratio O15294_C620 ([5]; 200 μM, insitu, ramos): 2.6 |
| O=C(CCl)NC12CC3CC(CC(C3)C1)C2 [compound 21] | 1.3 | 0.7 | 0.7 | 1.4 | 0.7 | 1.1 | – | – | – | – |
| O=C(CCl)N1CCC(Cc2ccccc2)CC1 [compound 9] | – | – | – | – | – | – | – | – | – | isoTOP-ABPP reactivity Q9NYL2_C22 MUTK Mitogen-activated protein kinase MLTK ([1]; 200 μM, insitu, 231): 10.3; isoTOP-ABPP reactivity P42765_C92 ACAA2 [2]; 231: 4.3; isoTOP-ABPP reactivity P42224_C492 STAT1 ([3]; 200 μM, insitu, 231): 3.1; isoTOP-ABPP reactivity O00299_C24 CLIC1 ([4]; 200 μM, insitu, 231): 3.0; isoTOP-ABPP reactivity 015294_C758 OGT ([5]; 200 μM, insitu, 231): 2.1; isoTOP-ABPP reactivity Q13526_C113 PIN1 ([6]; 200 μM, insitu, 231): 3.3; isoTOP-ABPP reactivity Q865X6_C67 GLRX5 ([7]; 200 μM, insitu, 231): 5.1 |
